Holding throughout (assay): sunitinib treatment, viability of NSCLC cell line (IC50)
One assay deals with H358. The assay is classed as cell-based.
Another assay relates to H520. In kind it is cell-based.
The next assay concerns H157. In kind it is cell-based.
A further assay has as its system A549. The assay is classed as cell-based.
In a further assay the test system is H322C.
In the next assay the test system is H1703. The assay is classed as cell-based.

Consider `CCN(CC)CCNC(=O)c1c(C)[nH]c(/C=C2\C(=O)Nc3ccc(F)cc32)c1C` [sunitinib, N-[2-(diethylamino)ethyl]-5-[(Z)-(5-fluoro-1,2-dihydro-2-oxo-3H-indol-3-ylidine)methyl]-2,4-dimethyl-1H-pyrrole-3-carboxamide], for which the IC50 in the assay on H358 (Homo sapiens, NCI-H358, H358 cell line, sunitinib) was > 10 µM; in the assay with H520 (Homo sapiens, NCI-H520, H520 cell line, sunitinib) it was 1 to 3 µM; in the assay on H157 (Homo sapiens, NCI-H157, H157 cell line, sunitinib) it was > 10 µM; with A549 (Homo sapiens, A549 cell line, sunitinib), > 10 µM; in the assay with H322C, 9 to 10 µM; in the assay with H1703 (Homo sapiens, NCI-H1703, H1703 cell line, sunitinib), < 0.5 µM. In addition, the “sensitivity of cell line to sunitinib” value in the assay with H358 (untransfected H358) is given as “resistant (sunitinib resistant (defined solely for the purposes of this example as having IC50>9 μM))”; in the assay with H520 (untransfected H520) it was “sensitive (sunitinib sensitive (defined solely for the purposes of this example as having an IC50<3 μM))”; in the assay on H157 (untransfected H157) it was “resistant (sunitinib resistant (defined solely for the purposes of this example as having IC50>9 μM))”; with A549 (untransfected A549), “resistant (sunitinib resistant (defined solely for the purposes of this example as having IC50>9 μM))”; with H322C (untransfected H322C), “resistant (sunitinib resistant (defined solely for the purposes of this example as having IC50>9 μM))”; with H1703 (untransfected H1703), “sensitive (sunitinib sensitive (defined solely for the purposes of this example as having an IC50<3 μM))”.

In general, IC50 refers to the concentration needed to halve the response being measured.

The values are drawn from patent US20110124700A1, “SYSTEMS AND METHODS OF CANCER STAGING AND TREATMENT” (priority 2008, published 2011).
